The record followed here is patent publication US20230312587A1, “PTERIDINONE COMPOUNDS AND USES THEREOF” (Vertex Pharmaceutical Incorporated, priority 2018, published 2023).

Molecules are shown by their SMILES. Like-named read-outs stand apart in the source and are kept apart here.

This assay deals with β-catenin-TCF-mediated reporter transcription activity in Colo 205 cells. The assay can be described thus: Colo 205 reporter assay (TCF/LEF luciferase). In kind it is cell-based. To be noted: Homo sapiens, COLO 205, 5 h, Colo 205 TCF/LEF luciferase reporter, read-out: TCF reporter Colo205 IC50. An excerpt:
The compounds of the invention described herein were screened using the assay procedure for β-catenin-TCF-mediated reporter transcription activity described below.
Reporter cell lines were generated by stably transfecting cells of cancer cell lines (e.g., colon cancer) with a plasmid reporter construct (From SABiosciences, a QIAGEN company) that includes TCF/LEF promoter driving expression of the firefly luciferase gene. TCF/LEF reporter constructs were made in which TCF/LEF promoter, a promoter with optimal number of TCF/LEF binding sites designed by SABiosceinces, was linked upstream of the firefly luciferase gene. This construct could also include a puromycin resistance gene as a selectable marker. This construct could also be used to stably transfect Colo 205 cells, a colon cancer cell line having a mutated APC gene that causes a constitutively active β-catenin. A control cell line was generated using another plasmid construct containing the luciferase gene under the control of a CMV basal promoter which is not activated by p-catenin.
Colo 205 Cultured cells with a stably transfected reporter construct were plated at approximately 10,000 cells per well into 384 well multi-well plates for twenty four hours. The testing compounds were then added to the wells in 2-fold serial dilutions using a twenty micromolar top concentration. A series of control wells for each cell type received only compound solvent. Five hours after the addition of compound, reporter activity for luciferase was assayed, by addition of the SteadyGlo luminescence reagent (Promega). The reporter luminescence activity was measured using Pherastar plate reader (BMG Labtech). Readings were normalized to DMSO only treated cells, and normalized activities were then used in the IC50 calculations. The Colo 205 reporter assay data are summarized in Table 45: A<0.3 μM; 0.3 μM≤B<1.0 μM; 1.0 μM≤C<5.0 μM; D≥5.0 μM
Colo 205 reporter assay data has also been obtained for certain R-isomers of Formula (I) wherein R^4 is —H or -D, and wherein the carbon to which R^3 and R^4 are attached (C2 carbon of Formula (X)) has R stereochemistry; such epimeric compounds are represented using the suffix “B” attached to the Compound described herein having the S stereochemistry at the carbon to which R^3 and R^4 are attached: […]

Setting [1] is: five hours after addition of compound.

As to `Cc1nc(N[C@H]2C[C@H](OCc3cc(F)c(F)c(F)c3)C2)nc2c1N(C)C(=O)[C@H](C)N2C` [Compound 255, (7S)-4,5,7,8-tetramethyl-2-((trans-3-((3,4,5-trifluorobenzyl)oxy)cyclobutyl)amino)-7,8-dihydropteridin-6(5H)-one], under setting [1], the IC50 was below 300 nM.

Consider `C[C@@H]1C(=O)Nc2cnc(NCc3cnn(Cc4cc(F)c(F)c(F)c4)c3)nc2N1C` [Compound I-896], for which the concentration for half-maximal inhibition (IC50) (R-isomer at C2 (corresponding to C2 S-isomer), 5 h) fell in the range of 300 to 1000 nM.

As for `Cc1nc(NCc2cnn(Cc3cc(C(F)(F)F)ccn3)c2)nc2c1NC(=O)[C@H](C)N2C` [Compound 201, (7S)-4,7,8-trimethyl-2-(((1-((4-(trifluoromethyl)pyridin-2-yl)methyl)-1H-pyrazol-4-yl)methyl)amino)-7,8-dihydropteridin-6(5H)-one], the IC50 under setting [1] fell in the range of 300 to 1000 nM.

`Cc1nc(N[C@H]2C[C@H](NC(=O)Cn3ccc(C(F)(F)F)n3)C2)nc2c1NC(=O)[C@H](C(C)C)N2C` [Compound 554, N-(trans-3-(((S)-7-isopropyl-4,8-dimethyl-6-oxo-5,6,7,8-tetrahydropteridin-2-yl)amino)cyclobutyl)-2-(3-(trifluoromethyl)-1H-pyrazol-1-yl)acetamide]: under setting [1], the IC50 lay in the range of 1000 to 5000 nM.

Take `CC[C@H]1C(=O)Nc2c(C)nc(N[C@H]3C[C@@H](COc4ccc(C(F)(F)F)nc4)C3)nc2N1C` [Compound 646, (S)-7-ethyl-4,8-dimethyl-2-((cis-3-(((6-(trifluoromethyl)pyridin-3-yl)oxy)methyl)cyclobutyl)amino)-7,8-dihydropteridin-6(5H)-one]: under setting [1], the IC50 is below 300 nM.

As to `COc1c(F)cc(Cn2cc(CNc3nc(C)c4c(n3)N(C)[C@@H](C(C)C)C(=O)N4)nn2)cc1F` [Compound 451, (S)-2-(((1-(3,5-difluoro-4-methoxybenzyl)-1H-1,2,3-triazol-4-yl)methyl)amino)-7-isopropyl-4,8-dimethyl-7,8-dihydropteridin-6(5H)-one], under setting [1], the IC50 is below 300 nM.

Regarding `Cc1nc(NCc2cnn(Cc3c(F)cc(F)cc3F)c2)nc2c1N(C)C(=O)[C@H](C)N2C` [Compound 18, (7S)-4,5,7,8-tetramethyl-2-(((1-(2,4,6-trifluorobenzyl)-1H-pyrazol-4-yl)methyl)amino)-7,8-dihydropteridin-6(5H)-one], the IC50 under setting [1] is below 300 nM.

`Cc1nc(N[C@H]2C[C@@H](Nc3cc(F)c(F)c(F)c3)C2)nc2c1NC(=O)[C@H](C)N2C` [Compound 485, (S)-4,7,8-trimethyl-2-((cis-3-((3,4,5-trifluorophenyl)amino)cyclobutyl)amino)-7,8-dihydropteridin-6(5H)-one]: the IC50 under setting [1] is below 300 nM.

With `Cc1nc(NC2CN(C(=O)c3ccc(OCC(F)(F)F)nc3)C2)nc2c1NC(=O)[C@H](C(C)C)N2C` [Compound 615, (S)-7-isopropyl-4,8-dimethyl-2-((1-(6-(2,2,2-trifluoroethoxy)nicotinoyl)azetidin-3-yl)amino)-7,8-dihydropteridin-6(5H)-one], under setting [1], the IC50 was in the range of 300 to 1000 nM.

As to `Cc1nc(NCc2cnn(Cc3ccc(C(F)(F)F)nc3)c2)nc2c1N(C)C(=O)[C@H](C)N2C` [Compound 177, (7S)-4,5,7,8-tetramethyl-2-(((1-((6-(trifluoromethyl)pyridin-3-yl)methyl)-1H-pyrazol-4-yl)methyl)amino)-7,8-dihydropteridin-6(5H)-one], under setting [1], the IC50 is below 300 nM.

With `Cc1nc(NC2CN(C(=O)Nc3cc(F)c(F)c(F)c3)C2)nc2c1NC(=O)[C@H](C(C)C)N2C` [Compound 564, (7S)-3-((7-isopropyl-4,8-dimethyl-6-oxo-5,6,7,8-tetrahydropteridin-2-yl)amino)-N-(3,4,5-trifluorophenyl)azetidine-1-carboxamide], the IC50 under setting [1] was in the range of 1000 to 5000 nM.

For `Cc1nc(N[C@H]2C[C@@H](Nc3cnc(C(F)(F)F)cn3)C2)nc2c1NC(=O)C1(CCOC1)N2C` (relative stereo) [Compound 687, 4′,8′-dimethyl-2′-((cis-3-((5-(trifluoromethyl)pyrazin-2-yl)amino)cyclobutyl)amino)-4,5,5′,8′-tetrahydro-2H,6′H-spiro[furan-3,7′-pteridin]-6′-one], the IC50 under setting [1] fell in the range of 300 to 1000 nM.

Broadly, the IC50 is the concentration that gives 50% inhibition.
